Measured values taken from ChEMBL document CHEMBL5634180, “Serratiomycins D1-D3, Antibacterial Cyclic Peptides from a Serratia sp. and Structure Revision of Serratiomycin” (2024).
≈ marks a conversion by molar mass, not a printed value.

Experiments:
Staphylococcus aureus = experiment: Antibacterial activity against Staphylococcus aureus ATCC 25923 incubated for 16 to 20 hrs; type: functional; details: time 16-20 hrs
Enterococcus faecium = experiment: Antibacterial activity against Enterococcus faecium ATCC 19434 incubated for 16 to 20 hrs; type: functional; details: time 16-20 hrs
Enterococcus faecalis = experiment: Antibacterial activity against Enterococcus faecalis ATCC 19433 incubated for 16 to 20 hrs; type: functional; details: time 16-20 hrs
Klebsiella pneumoniae = experiment: Antibacterial activity against Klebsiella pneumoniae ATCC 10031 incubated for 16 to 20 hrs; type: functional; details: time 16-20 hrs
Escherichia coli = experiment: Antibacterial activity against Escherichia coli ATCC 25922 incubated for 16 to 20 hrs; type: functional; details: time 16-20 hrs
Candida albicans = experiment: Antifungal activity against Candida albicans ATCC 10231 incubated for 16 to 20 hrs; type: functional; details: time 16-20 hrs
Aspergillus fumigatus = experiment: Antifungal activity against Aspergillus fumigatus HIC6094 incubated for 16 to 20 hrs; type: functional; details: time 16-20 hrs
Trichophyton rubrum = experiment: Antifungal activity against Trichophyton rubrum NBRC9185 incubated for 16 to 20 hrs; type: functional; details: time 16-20 hrs
[1] = test system: Trichophyton mentagrophytes; experiment: Antifungal activity against Trichophyton mentagrophytes IFM40996 incubated for 16 to 20 hrs; type: functional; details: time 16-20 hrs
Salmonella enterica = experiment: microbe, parasite or virus in culture; details: ATCC 14028
Description: Antibacterial activity against Salmonella enterica ATCC 14028 incubated for 16 to 20 hrs

SMILES: CCCCCCC[C@@H]1CC(=O)N[C@H](CC(C)C)C(=O)N[C@@H](CO)C(=O)N[C@@H]([C@@H](C)O)C(=O)N[C@H](Cc2ccccc2)C(=O)N[C@@H]([C@H](C)CC)C(=O)O1
- MIC (Staphylococcus aureus): 32 µg/mL (≈ 43.7 µM)
- MIC (Enterococcus faecium): 32 µg/mL (≈ 43.7 µM)
- MIC (Enterococcus faecalis): 32 µg/mL (≈ 43.7 µM)
- MIC (Klebsiella pneumoniae): > 128 µg/mL
- MIC (Escherichia coli): > 128 µg/mL
- MIC (Candida albicans): > 128 µg/mL
- MIC (Aspergillus fumigatus): > 128 µg/mL
- MIC (Trichophyton rubrum): > 128 µg/mL
- MIC [1]: > 128 µg/mL
- MIC (Salmonella enterica): 32 µg/mL (≈ 43.7 µM)

SMILES: CN(C)[C@@H]1C(O)=C(C(N)=O)C(=O)[C@@]2(O)C(O)=C3C(=O)c4c(O)cccc4[C@@](C)(O)[C@H]3C[C@@H]12 [TETRACYCLINE]
- MIC (Klebsiella pneumoniae): 0.25 µg/mL (≈ 0.563 µM)

SMILES: CC1(C)S[C@@H]2[C@H](NC(=O)[C@H](N)c3ccccc3)C(=O)N2[C@H]1C(=O)O [AMPICILLIN]
- MIC (Staphylococcus aureus): 0.13 µg/mL (≈ 0.372 µM)
- MIC (Enterococcus faecium): 0.5 µg/mL (≈ 1.43 µM)
- MIC (Enterococcus faecalis): 0.5 µg/mL (≈ 1.43 µM)
- MIC (Klebsiella pneumoniae): > 128 µg/mL
- MIC (Escherichia coli): 8 µg/mL (≈ 22.9 µM)
- MIC (Salmonella enterica): 0.5 µg/mL (≈ 1.43 µM)

SMILES: CCCCCCCCC[C@@H]1CC(=O)N[C@H](CC(C)C)C(=O)N[C@@H](CO)C(=O)N[C@@H]([C@@H](C)O)C(=O)N[C@H](Cc2ccccc2)C(=O)N[C@@H]([C@H](C)CC)C(=O)O1
- MIC (Staphylococcus aureus): 16 µg/mL (≈ 21.1 µM)
- MIC (Enterococcus faecium): 32 µg/mL (≈ 42.1 µM)
- MIC (Enterococcus faecalis): 64 µg/mL (≈ 84.2 µM)
- MIC (Klebsiella pneumoniae): > 128 µg/mL
- MIC (Escherichia coli): > 128 µg/mL
- MIC (Candida albicans): > 128 µg/mL
- MIC (Aspergillus fumigatus): > 128 µg/mL
- MIC (Trichophyton rubrum): > 128 µg/mL
- MIC [1]: > 128 µg/mL
- MIC (Salmonella enterica): 16 µg/mL (≈ 21.1 µM)

SMILES: CCCCCC/C=C\C[C@@H]1CC(=O)N[C@H](CC(C)C)C(=O)N[C@@H](CO)C(=O)N[C@@H]([C@@H](C)O)C(=O)N[C@H](Cc2ccccc2)C(=O)N[C@@H]([C@H](C)CC)C(=O)O1
- MIC (Staphylococcus aureus): 16 µg/mL (≈ 21.1 µM)
- MIC (Enterococcus faecium): 32 µg/mL (≈ 42.2 µM)
- MIC (Enterococcus faecalis): 32 µg/mL (≈ 42.2 µM)
- MIC (Klebsiella pneumoniae): > 128 µg/mL
- MIC (Escherichia coli): > 128 µg/mL
- MIC (Candida albicans): > 128 µg/mL
- MIC (Aspergillus fumigatus): > 128 µg/mL
- MIC (Trichophyton rubrum): > 128 µg/mL
- MIC [1]: > 128 µg/mL
- MIC (Salmonella enterica): 8 µg/mL (≈ 10.6 µM)

SMILES: C[C@@H]1[C@H](O)[C@@H](C)/C=C/C=C/C=C/C=C/C=C/C=C/C=C/[C@H](O[C@@H]2O[C@H](C)[C@@H](O)[C@H](N)[C@@H]2O)C[C@@H]2O[C@](O)(C[C@@H](O)C[C@@H](O)[C@H](O)CC[C@@H](O)C[C@@H](O)CC(=O)O[C@H]1C)C[C@H](O)[C@H]2C(=O)O [AMPHOTERICIN B]
- MIC (Candida albicans): 0.5 µg/mL (≈ 0.541 µM)
- MIC (Aspergillus fumigatus): 1 µg/mL (≈ 1.08 µM)
- MIC (Trichophyton rubrum): 1 µg/mL (≈ 1.08 µM)
- MIC [1]: 1 µg/mL (≈ 1.08 µM)

SMILES: CCCCCCC[C@@H](O)CC(=O)N[C@H](CC(C)C)C(=O)N[C@@H](CO)C(=O)N[C@H](C(=O)N[C@H](Cc1ccccc1)C(=O)N[C@H](C(=O)OC)[C@H](C)CC)[C@@H](C)O
- MIC (Staphylococcus aureus): > 128 µg/mL
- MIC (Enterococcus faecium): > 128 µg/mL
- MIC (Enterococcus faecalis): > 128 µg/mL
- MIC (Klebsiella pneumoniae): > 128 µg/mL
- MIC (Escherichia coli): > 128 µg/mL
- MIC (Candida albicans): > 128 µg/mL
- MIC (Aspergillus fumigatus): > 128 µg/mL
- MIC (Trichophyton rubrum): > 128 µg/mL
- MIC [1]: > 128 µg/mL
- MIC (Salmonella enterica): > 128 µg/mL

SMILES: CCCCCCC[C@@H]1CC(=O)N[C@H](CC(C)C)C(=O)N[C@@H](CO)C(=O)N[C@@H]([C@@H](C)O)C(=O)N[C@H](Cc2ccc(O)cc2)C(=O)N[C@@H](C(C)C)C(=O)O1
- MIC (Staphylococcus aureus): > 128 µg/mL
- MIC (Enterococcus faecium): > 128 µg/mL
- MIC (Enterococcus faecalis): > 128 µg/mL
- MIC (Klebsiella pneumoniae): > 128 µg/mL
- MIC (Escherichia coli): > 128 µg/mL
- MIC (Candida albicans): > 128 µg/mL
- MIC (Aspergillus fumigatus): > 128 µg/mL
- MIC (Trichophyton rubrum): > 128 µg/mL
- MIC [1]: > 128 µg/mL
- MIC (Salmonella enterica): > 128 µg/mL
